Assay results from patent publication US20170182058A1, “TREATMENT OF RETT SYNDROME” (priority 2014, published 2017).
Like-named read-outs stand apart in the source and are kept apart here.

What was measured:
[1] = in vitro permeability of a layer of CaCo-2 cells; type: in vitro ADME, human; conditions: human, Caco-2; test conc 50 μM, assay duration 2 hr; read-out: mean A->B Papp (apparent permeability)
mice [2] = assay: enhancement of learning in animals; type: in vivo; conditions: compared with galantamine
Description: Potentiation of nicotinic receptors facilitates release of a number of different neurotransmitters including dopamine, glutamate, and GABA.

Mecp2 mice [3] = assay: respiratory function, plethysmograph; type: in vivo; conditions: IP or gavage, 0.1-20 mg/kg
Method: Respiratory function was monitored in a plethysmograph (EMKA Technologies) for 30 minutes prior to and 1 hour after drug administration (one set of mice received IP injections and one set of mice received oral gavage). [N=2 mice/group at each dose and each administration route; for the vehicle controls, N=6 WT/group; N=6 Mecp2/group]. Data were analyzed using repeated measures analysis of variance.

CaCo-2 cells = assay: in vitro permeability of a layer of CaCo-2 cells; type: in vitro ADME, human; conditions: based on in vitro CaCo-2 permeability
cholinesterase = cholinesterase inhibitor (Han et al 1991); cited from earlier work
nicotinic receptors = assay: neuronal electrophysiological activity via nicotinic receptors; conditions: galantamine positive allosteric modulatory site on nicotinic receptors
mice [4] = conditions: cited from earlier work; for adverse effects at high doses: 50-100 mg/kg
plasma stability = type: in vitro ADME; conditions: based on animal and in-vitro studies
Mecp2 mice [5] = assay: locomotor activity, photobeam activity system; type: in vivo; conditions: 0.1-20 mg/kg
Method: Locomotor activity was monitored using methods described previously (Shaevitz et al. 2013 Genes Brain Behav. 12(7): 732-40. doi: […]). Mecp2 mutant males (between 1 and 3 months old) and females (between 3 and 6 months old) and age-matched controls were monitored for one-hour prior to and 12 hours after drug (or vehicle: 20% DMSO in saline) administration (one set of mice received IP injections and one set of mice received oral gavage) in doses that ranged from 0.1-20 mg/kg). Activity was measured across the 12-h dark cycle using a photobeam activity system (San Diego Instruments, San Diego, Calif., USA). Mice were placed individually into a cage (47×25×21 cm) inside a rectangular arena equipped with a 3×8 array of photobeams. The average number of ambulatory (two adjacent) and fine (repeated single) beam breaks per hour over the 12 h was compared. [N=2 mice/group at each dose and each administration route; for the vehicle controls, N=6 WT/group; N=6 Mecp2/group]. Data were analyzed using repeated measures analysis of variance.

female Mecp2 mice = assay: novel object recognition (NOR) task; type: in vivo; conditions: Mecp2 females
Method: Cognitive function was assessed using the novel object recognition (NOR) task using methods previously described (Schaevitz et al. 2013). […] Novel object memory was assessed. during three sessions. This task relies on the innate tendency of a mouse to explore unfamiliar objects vs. familiar objects. Testing was performed in an open-field arena. Twenty-four hours prior to training, mice were habituated to the arena for 10 min. Ninety minutes before training, the mice were administered drug or vehicle (0.1, 0.5, 1.0, 2.5 and 5.0 mg/kg IP). During training, mice were given 10 min to explore two identical Lego Objects (A +A). Short- and long-term object memory were assessed in two subsequent sessions (24 h after the completion of training) during which mice were given 10 min to explore the familiar (A) or a novel (B or C) object. The duration of exploration (defined as the mouse's snout or forelimbs physically touching or approaching within 1 cm of an object) of familiar and novel objects was measured. The amount of time spent exploring the novel object over the total time exploring both novel and familiar objects in each session was used to measure object memory. [N==6/dose of 0.1, 0.5 and 1.0; N=1/dose of 2.5 and 5.0 mg/kg; for vehicle N=6 WT and N=6 Mecp2 mice.]
For the novel Objection recognition task data, we created a matrix of all wildtype and. Mecp2 females who were administered the vehicle and a second matrix comparing Mecp2 females with and without the drug (all doses combined).

[6] = drug IP, all doses 0.1-5.0 mg/kg combined

Row | Structure (SMILES) | Papp A→B at 2 hr, 50 μM [1] [×10⁻⁶ cm/s] | enhancing learning (mice [2]) | respiratory activity (Mecp2 mice [3]) | predicted oral bioavailability (CaCo-2 cells) [%] | IC50 (cholinesterase) [µM] | neuronal electrophysiological activity (nicotinic receptors) | adverse effects at high doses (mice [4]; listed as Galantamine n-butylcarbamate) | adverse effects at high doses (mice [4]; listed as n-butylcarbamate) | lethality (no lethality up to dose) (mice [4]) [mg/kg] | stability in plasma (plasma stability) | safety and tolerability (Mecp2 mice [5]; Mecp2 mice of both sexes and controls, from locomotor and respiratory tests) | locomotor activity (Mecp2 mice [5]; Mecp2 mice of either sex, IP or gavage) | ambulatory and fine motor movements (Mecp2 mice [5]; all doses tested, IP or oral gavage) | NOR scores = or below 0.5 (share of mice that did not learn) (female Mecp2 mice; [6]) [%] | NOR scores above 0.5 (share of mice that learned) (female Mecp2 mice; [6]) [%] | NOR task performance versus vehicle (female Mecp2 mice; Chi square p = 0.0321)
1 | CNC(=C[N+](=O)[O-])NCCSCc1ccc(CN(C)C)o1 [Ranitidine, reference compound] | 1.1 | – | – | – | – | – | – | – | – | – | – | – | – | – | – | –
2 | CC(=O)CC(c1ccccc1)c1c(O)c2ccccc2oc1=O (stereo not drawn) [Warfarin, reference compound] | 34.7 | – | – | – | – | – | – | – | – | – | – | – | – | – | – | –
3 | CCCCNC(=O)O[C@H]1C=C[C@@]23CCN(C)Cc4ccc(OC)c(c42)O[C@H]3C1 [galantamine n-butylcarbamate] | 20.8 | effective in enhancing learning at lower doses than galantamine | did not affect respiratory activity | 80 | 1.09 | enhances neuronal electrophysiological activity | affects cardiac and motor functions | wobbly and off-balance with rapid heart rate still present at 4 hours, but were recovered at 24 hours | > 100 | stable in plasma | safe and well tolerated | did not impair locomotor activity | not significant altered | 65 | 35 | improves memory for a novel object and cognitive performance
